Source: patent publication US6544987B2, “Compounds, compositions, and methods for stimulating neuronal growth and elongation” (Pfizer Inc., priority 1999, dated 2003)
Where “and” joins values, the source holds several entries; their conditions need not be identical. Identical values can stand only once.

Molecular target: FKBP12 (Homo sapiens, UniProt P62942)
Experiment: Affinity for FKBP-12 (Ki), succinyl-Ala-Leu-Pro-Phe-pNA chymotrypsin-coupled assay
Type: biochemical
Conditions: Table 2; read-out: FKBP12 Kiapps
Description: In a quartz cuvette, a final 1 mL buffer concentration was reached (50 mM Hepes, 100 mM NaCl, pH 8.0). Within this final reaction volume, 3.5 μL […] FKBP-12 (in 50 mM Hepes, 100 mM NaCl, pH 8.0) and 10 μL test compound in DMSO were added. The reaction was initiated by adding 10 μL chymotrypsin (100 mg/mL in 1 mM HCl) followed by 5 μL (1-20 mM succinyl-Ala-Leu-Pro-Phe-pNA in 240 mM LiCl/TFE).
The absorbance at 390 nm versus time was monitored for up to 400 seconds. Rate constants were determined from the absorbance versus time plots generated.

FKBP12, sequence (P62942 whole entry, species assumed): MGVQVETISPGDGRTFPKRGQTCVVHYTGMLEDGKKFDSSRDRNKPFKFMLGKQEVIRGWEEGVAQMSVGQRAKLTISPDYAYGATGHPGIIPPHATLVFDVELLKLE

Row | Ki | SMILES
1 | 344 nM | COc1cc(NS(=O)(=O)N2CCCC[C@H]2C(=O)OCCCCc2ccccc2)cc(OC)c1 [Compound 48, 1-(3,5-Dimethoxy-phenylsulfamoyl)-piperidine-2S-carboxylic acid 4-phenyl-butyl ester]
2 | 80 nM | COc1ccc(NS(=O)(=O)N2CCCC[C@H]2C(=O)OCCCCc2ccccc2)cn1 [Compound 49, 1-(6-methoxy-pyridin-3-ylsulfamoyl)-piperidine-2S-carboxylic acid 4-phenyl-butyl ester]
3 | 152 nM | O=C(OCCCCc1ccccc1)[C@@H]1CCCCN1S(=O)(=O)Nc1ccc(Cl)nc1 [Compound 52, (S)-1-(6-Chloro-pyridin-3-ylsulfamoyl)-piperidine-2-carboxylic acid 4-phenyl-butyl ester]
4 | 13100 nM | COc1ccc(N(C)S(=O)(=O)N2CCCC[C@H]2C(=O)OCCCCc2ccccc2)cc1N [Compound 55, (S)-1-[(3-Amino-4-methoxy-phenyl)-methyl-sulfamoyl]-piperidine-2-carboxylic acid 4-phenyl-butyl ester]
5 | 477 nM | O=C(OCCCCc1ccccc1)[C@@H]1CCCCN1S(=O)(=O)Nc1ccc2nc[nH]c2c1 [Compound 56, (S)-1-(3H-Benzoimidazol-5-ylsulfamoyl)-piperidine-2-carboxylic acid 4-phenyl-butyl ester]
6 | 5200 nM | O=C(OCCCCc1ccccc1)C1CSCCN1S(=O)(=O)Nc1ccccc1 (stereo not drawn) [Compound 69, 4-Phenylsulfamoyl-thiomorpholine-3-carboxylic acid 4-phenyl-butyl ester]

The remaining lines, values behind:

Row | SMILES | Ki
7 | NC(=O)C1CCCN(S(=O)(=O)N2CCCC[C@H]2C(=O)OCCCCc2ccccc2)C1 (stereo partly drawn) [Compound 51, 1-(3-Carbamoyl-piperidine-1-sulfonyl)-piperidine-2S-carboxylic acid 4-phenyl-butyl ester] | 930 nM
8 | COC(OC)c1ccn(S(=O)(=O)N2CCCC[C@H]2C(=O)OCCCCc2ccccc2)n1 [Compound 53, 1-(3-Dimethoxymethyl-pyrazole-1-sulfonyl)-peperidine-2-carboxyic acid 4-phenyl-butyl ester] | 2900 nM
9 | COc1ccc(N(C)S(=O)(=O)N2CCCC[C@H]2C(=O)OCCCCc2ccccc2)cc1[N+](=O)[O-] [Compound 54, (S)-1-[(4-Methoxy-3-nitro-phenyl)-methyl-sulfamoyl]-piperidine-2-carboxylic acid 4-phenyl-butyl ester] | 26000 nM
10 | COc1cc(NS(=O)(=O)N2CCCC[C@H]2C(=O)NCCCCc2ccccc2)cc(OC)c1OC [Compound 59, (S)-1-(3,4,5-Trimethoxy-phenylsulfamoyl)-piperidine-2-carboxylic acid (4-phenyl-butyl)-amide] | 148 nM
11 | NS(=O)(=O)N1CCSCC1C(=O)OCCCCc1ccccc1 (stereo not drawn) [Compound 67, 4-sulfamoyl-thiomorpholine-3-carboxylic acid 4-phenyl-butyl ester] | 329000 nM and 267000 nM
12 | COc1cc(NS(=O)(=O)N2CCSCC2C(=O)OCCCCc2ccccc2)cc(OC)c1OC (stereo not drawn) [Compound 68, 4-(3,4,5-trimethoxy-phenylsulfamoyl)-thiomorpholine-3-carboxylic acid 4-phenyl-butyl ester] | 4410 nM and 6400 nM
13 | O=C(OCCCCc1ccccc1)C1CSCCN1S(=O)(=O)Nc1ccc2[nH]c(=O)[nH]c2c1 (stereo not drawn) [Compound 70, 4-(2-Oxo-2,3-dihydro-1H-benzoimidazol-5-ylsulfamoyl)-thiomorpholine-3-carboxylic acid 4-phenyl-butyl ester] | 960 nM
14 | CN(C)S(=O)(=O)N1CCCC[C@H]1c1nnc(Cc2ccccc2)o1 [Compound 75, 2S-(5-Benzyl-[1,3,4]oxadiazol-2-yl)-piperidine-1-sulfonic acid dimethylamide] | 107000 nM
15 | O=S(=O)(Nc1ccccc1)N1CCCC[C@H]1c1nnc(Cc2ccccc2)o1 [Compound 76, 2S-(5-Benzyl-[1,3,4]oxadiazol-2-yl)-piperidine-1-sulfonic acid phenylamide] | 1300 nM
